{
  "source": "paper PMC9220127",
  "about": "“Reactive Human Plasma Glutathione Peroxidase Mutant with Diselenide Bond Succeeds in Tetramer Formation” (Antioxidants, 2022)",
  "biological_target": "T1, Sec−hGPx3 (human plasma glutathione peroxidase, GPx3) (Homo sapiens, UniProt P22352)",
  "T1 construct": "mature form without signal peptide (nucleotides 1-72 removed), Sec49 inserted at UAG with tRNA-UTuT6, E. coli C321.ΔA.exp, Ni-NTA purified, unglycosylated, about 25 kDa; starts QEKSKMDCHGGIS",
  "T1 sequence (P22352 25-226)": "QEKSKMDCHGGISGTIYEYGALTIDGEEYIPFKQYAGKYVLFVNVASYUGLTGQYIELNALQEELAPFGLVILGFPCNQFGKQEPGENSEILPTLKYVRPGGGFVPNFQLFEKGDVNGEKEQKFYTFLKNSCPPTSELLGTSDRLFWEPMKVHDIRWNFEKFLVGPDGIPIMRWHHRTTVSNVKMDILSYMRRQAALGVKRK",
  "experiment": "glutathione reductase-coupled NADPH oxidation at […] nm",
  "assay_type": "biochemical",
  "conditions": "60 μM t-BuOOH, 1 mM GSH, 0.25 mM NADPH, 1 mM EDTA, pH 7.4, 37 °C; non-tetrameric recombinant enzyme",
  "data": [
    {"smiles": "CC(C)(C)OO", "note": "[t−BuOOH]", "values": [
      {"measurement": "glutathione reductase-coupled NADPH oxidation at 340 nm", "result": "GR−coupled assay with H2O2 or t−BuOOH as substrates (Figure 1B), which revealed significant GPx activity"}
    ]}
  ]
}
